Patent publication US7786165B2, “Aminophenylpropanoic acid derivative” (Takeda Pharmaceutical Company Limited, priority 2004, dated 2010)
Where a name gives a salt, the structure may show the parent alone.

The molecules below were run against T1, human GPR40 (Homo sapiens, UniProt O14842) (assay: Determination of EC50 for human GPR40: intracellular calcium change by FLIPR in CHO cells stably expressing human GPR40). Details: CHO cell line stably expressing human GPR40, changes in intracellular calcium concentration, Fluo3-AM, read-out: EC50 (Receptor Function Modulating Action On GPR40).
T1 construct: expressed in transfected cells; host or cells: CHO cell line stably expressing human GPR40
Assay type: cell-based
Method: Determination of EC50 of the Compound of the Present Invention for Human GPR40
For determination of EC50, CHO cell line that stably expressed human GPR40 was used. Unless otherwise indicated, the CHO cell line was cultured using α-MEM medium (Invitrogen) containing 10% fetal calf serum (Invitrogen).
The cells cultured to nearly confluent were rinsed with PBS (Invitrogen) on the previous day of the assay, peeled off with 0.05% Trypsin-EDTA solution (Invitrogen) and recovered by centrifugation. The number of the obtained cells was counted, and the cells were diluted such that 3×10^5 cells were contained per 1 mL of the medium, dispensed to a black welled 96-well plate (coster) by 100 μL per well and cultured overnight in a CO2 incubator. Various test compounds were added to the CHO cells thus prepared, and the changes in the intracellular calcium concentration were measured using FLIPR (Molecular Device). The below-mentioned pre-treatment was applied to measure changes in the intracellular calcium concentration by FLIPR.
First, an assay buffer for adding a fluorescence dye Fluo3-AM (DOJIN) to the cells, or for washing the cells immediately before FLIPR assay was prepared. To a solution of HBSS (Invitrogen, 1000 mL) to which 1M HEPES (pH 7.4, DOJIN, 20 mL) added (hereinafter HBSS/HEPES solution) was added a solution (10 mL) obtained by dissolving probenecid (Sigma, 710 mg) in 1N NaOH (5 mL), and adding and mixing an HBSS/HEPES solution (5 mL), and the resulting solution was used as an assay buffer. Next, Fluo3-AM (50 μg) was dissolved in dimethylsulfoxide (Wako, 21 μL), and an equivalent amount of 20% pluronic acid (Molecular Probes) was added and mixed. The solution was added to the assay buffer (10.6 mL) supplemented with fetal vovine serum (105 μL) to give a fluorescence dye solution. The medium of the CHO cells inoculated to the black welled 96-well plate on the previous day of assay was removed, the fluorescence dye solution was immediately dispensed by 100 μL per well and the cells were cultured in a CO2 incubator for 1 hr to allow intake of the fluorescence dye by the cells. The cells after the culture were washed with the above-mentioned assay buffer and set on FLIPR. The test compound was diluted with dimethylsulfoxide in advance, dispensed to polypropylene 96-well plate (sample plate) by […], and cryopreserved at −20° C. To the thawed sample plate was added an assay buffer containing 0.015% CHAPS (DOJIN) by 198 μL, and simultaneously set on FLIPR together with the cell plate. After the aforementioned pre-treatment, changes in the intracellular calcium concentration upon addition of various test compounds as measured by FLIPR. Based on the results, a dose-response curve of each test compound was formed and EC50 was calculated.

T1 sequence (O14842 whole entry): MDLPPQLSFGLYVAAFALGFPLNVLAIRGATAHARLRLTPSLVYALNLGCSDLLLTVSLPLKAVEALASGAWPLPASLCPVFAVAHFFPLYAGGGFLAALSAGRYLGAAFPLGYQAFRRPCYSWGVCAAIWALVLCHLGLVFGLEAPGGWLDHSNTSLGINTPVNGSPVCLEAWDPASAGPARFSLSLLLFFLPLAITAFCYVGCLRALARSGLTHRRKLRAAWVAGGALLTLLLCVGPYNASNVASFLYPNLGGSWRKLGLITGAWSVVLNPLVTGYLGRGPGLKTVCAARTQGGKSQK

Compound | EC50 [µM]
CCOCCOc1cc(C)c(-c2cccc(CNc3ccc(CCC(=O)O)cc3)c2)c(C)c1 [Example 37, 3-[4-({[4′-(2-ethoxyethoxy)-2′,6′-dimethylbiphenyl-3-yl]methyl}amino)phenyl]propanoic acid hydrochloride] | < 0.1
Cc1ccc2ccccc2c1-c1cccc(CNc2ccc(CCC(=O)O)cc2)c1 [Example 26, 3-(4-{[3-(2-methyl-1-naphthyl)benzyl]amino}phenyl)propanoic acid hydrochloride] | < 0.1
Cc1cc(OCCCN2CCCC2=O)cc(C)c1-c1cccc(CNc2ccc(CCC(=O)O)c(F)c2)c1 [Example 149, 3-{4-[({2′,6′-dimethyl-4′-[3-(2-oxopyrrolidin-1-yl)propoxy]biphenyl-3-yl}methyl)amino]-2-fluorophenyl}propanoic acid benzenesulfonate] | < 0.1
CC(C)COc1ccc(CNc2ccc(CCC(=O)O)cc2)cc1CN1c2ccccc2C=CC1(C)C [Example 138, 3-[4-({3-[(2,2-dimethylquinolin-1(2H)-yl)methyl]-4-isobutoxybenzyl}amino)phenyl]propanoic acid] | < 1
CC(C)(C)c1cc(OCc2ccccc2)n(Cc2ccc(CNc3ccc(CCC(=O)O)c(F)c3)cc2)n1 [Example 171, 3-{4-[(4-{[5-(benzyloxy)-3-tert-butyl-1H-pyrazol-1-yl]methyl}benzyl)amino]-2-fluorophenyl}propanoic acid dimethanesulfonate] | < 0.1
CC(C)(C)c1cc(CCc2ccccc2)n(Cc2ccc(CNc3ccc(CCC(=O)O)c(F)c3)cc2)n1 [Example 113, 3-{4-[(4-{[3-tert-butyl-5-(2-phenylethyl)-1H-pyrazol-1-yl]methyl}benzyl)amino]-2-fluorophenyl}propanoic acid methanesulfonate] | < 0.1
Cc1cc(OCC(=O)O)cc(C)c1-c1cccc(CNc2ccc(CCC(=O)O)c(F)c2)c1 [Example 100, 3-[4-({[4′-(carboxymethoxy)-2′,6′-dimethylbiphenyl-3-yl]methyl}amino)-2-fluorophenyl]propanoic acid] | < 1
CCOCCOc1cc(C)c(-c2cccc(CNc3ccc(CCC(=O)O)cn3)c2)c(C)c1 [Example 120, 3-[6-({[4′-(2-ethoxyethoxy)-2′,6′-dimethylbiphenyl-3-yl]methyl}amino)pyridin-3-yl]propanoic acid methanesulfonate] | < 0.1
Cc1cc(OCC2(O)CCS(=O)(=O)CC2)cc(C)c1-c1cccc(CNc2ccc(CCC(=O)O)c(F)c2)c1 [Example 188, 3-{2-fluoro-4-[({4′-[(4-hydroxy-1,1-dioxidotetrahydro-2H-thiopyran-4-yl)methoxy]-2′,6′-dimethylbiphenyl-3-yl}methyl)amino]phenyl}propanoic acid] | < 0.1
CCS(=O)(=O)CCOc1cc(C)c(-c2cccc(CNc3ccc(CCC(=O)O)c(F)c3)c2)c(C)c1 [Example 146, 3-{4-[({4′-[2-(ethylsulfonyl)ethoxy]-2′,6′-dimethylbiphenyl-3-yl}methyl)amino]-2-fluorophenyl}propanoic acid methanesulfonate] | < 0.1
O=C(O)CCc1ccc(NC2CCc3cc(OCc4ccccc4)ccc32)cc1 (centres unmarked) [Example 210, 3-(4-{[5-(benzyloxy)-2,3-dihydro-1H-inden-1-yl]amino}phenyl)propanoic acid] | < 0.1
